One molecule from patent publication US6558664B1, “Chondrocyte cell-lines” (Cell Factors plc, priority 1994, dated 2003) can be followed below.

The subject of the experiment is chondrocyte cell-lines cloned from foetal femur. As to the kind of experiment: Von Kossa staining of calcium mineralisation in monolayer cultures of immortalised foetal femur chondrocyte cell-lines. Format: cell-based, human. To be noted: three chondrocyte clones incubated at the oncogene's non-permissive temperature (39° C.) in the presence of 1,25(OH)2D3; in its absence cells do not actively mineralise calcium; FIG. 5. As for the experimental part:
Foetal rib or femur tissue was taken at 7-9 weeks of gestation and placed in tissue culture flasks (Costar Limited, UK) in Eagle's minimum essential medium (Gibco Co Limited, UK) containing antibiotics and L-glutamine as well as 10% heat in activated foetal bovine serum. Cultured cells were maintained in a humidified atmosphere at 5% CO2 and 37° C. and medium changed at regular intervals (2-3 days). As is usual for primary cultures of resected tissue, cells within the sample move out from the body of the tissue, adhere to the flask surface, and replicate, potentially, to cover the whole surface of the tissue culture dish. After an initial period of, say, 2 weeks in primary culture. The cell population was transfected with a temperature sensitive mutant of the simium virus-40 derived large tumour (T) antigen using retroviral transduction.
In short, amphotropically packaged retroviral particles comprising this construct and a resistance marker to geneticin, G418 (kindly donated by Dr M O'Hare, Institute of Cancer Research, Royal Marsden Hospital, Lincoln's Inn, Sutton, Surrey, alternatively, essentially the same construct expressing a temperature sensitive mutant of the SV40-T oncogene was kindly donated by Professor Phil Gaillimore, CRC Laboratories, University of Birmingham, UK) was added to the medium together with polybrene (Sigma Chemicals) to a final concentration of 0.8 mg/ml. […]

As to `C=C1/C(=C\C=C2/CCC[C@]3(C)[C@@H]([C@H](C)CCCC(C)(C)O)CC[C@@H]23)C[C@@H](O)C[C@@H]1O` [1,25(OH)2D3], the “calcium mineralisation (Von Kossa staining)” value was “each clone actively mineralises calcium”.
